{
  "source": "ChEMBL document CHEMBL1157662",
  "about": "“Antimalarial and antileishmanial activities of histone deacetylase inhibitors with triazole-linked cap group” (Bioorg Med Chem, 2010)",
  "key": {"[1]": {"assay": "Selectivity index, ratio of IC50 for african green monkey (Cercopithecus aethiops) Vero cells to IC50 for chloroquine-sensitive Plasmodium falciparum D6"}, "Plasmodium falciparum [2]": {"test_system": "Plasmodium falciparum", "assay": "microbe, parasite or virus in culture", "conditions": "D6, Vero, 72 h", "description": "(§1) Antimalarial activity against chloroquine-sensitive Plasmodium falciparum D6 infected in African green monkey (Cercopithecus aethiops) Vero cells assessed as parasite LDH activity after 72 hrs by Malstat reagent method"}, "Plasmodium falciparum [3]": {"test_system": "Plasmodium falciparum", "assay": "Ratio of suberoylanilide hydroxamic acid IC50 to compound IC50 for chloroquine-resistant Plasmodium falciparum W2 infected in […]", "assay_type": "functional"}, "[4]": {"assay": "Selectivity index, ratio of IC50 for african green monkey (Cercopithecus aethiops) Vero cells to IC50 for chloroquine-resistant Plasmodium falciparum W2"}, "Plasmodium falciparum [5]": {"test_system": "Plasmodium falciparum", "assay": "microbe, parasite or virus in culture", "assay_type": "functional, organism-based, W2, Vero", "description": "Antimalarial activity against chloroquine-resistant Plasmodium falciparum W2 infected in African green monkey (Cercopithecus aethiops) Vero cells assessed as parasite LDH activity after 72 hrs by Malstat reagent method"}, "Vero": {"test_system": "Vero", "assay": "Cytotoxicity against african green monkey Vero cells after 1 to 2 days by neutral red assay", "assay_type": "ADME, cell-based, Chlorocebus sabaeus"}, "Leishmania donovani [6]": {"test_system": "Leishmania donovani", "assay": "Antileishmanial activity against Leishmania donovani promastigotes after 72 hrs by alamar blue assay", "assay_type": "functional, organism-based"}, "Plasmodium falciparum [7]": {"test_system": "Plasmodium falciparum", "assay": "Ratio of suberoylanilide hydroxamic acid IC50 to compound IC50 for chloroquine-sensitive Plasmodium falciparum D6 infected in […]", "assay_type": "functional"}, "Leishmania donovani [8]": {"test_system": "Leishmania donovani"}, "Plasmodium falciparum [9]": {"test_system": "Plasmodium falciparum", "conditions": "vero", "description": "as §1"}, "Leishmania donovani [10]": {"test_system": "Leishmania donovani", "assay": "Ratio of suberoylanilide hydroxamic acid IC50 to compound IC50 for Leishmania donovani promastigotes", "assay_type": "functional"}, "Leishmania donovani [11]": {"test_system": "Leishmania donovani", "assay": "Ratio of suberoylanilide hydroxamic acid IC50 to compound IC50 for Leishmania donovani promastigotes"}, "[12]": {"conditions": "Plasmodium falciparum, W2, Vero, 72 h, read-out: IC50"}, "[13]": {"conditions": "Chlorocebus sabaeus, Vero, read-out: IC50"}, "[14]": {"conditions": "Leishmania donovani, 72 h, read-out: IC50"}},
  "note": "Active and inactive are the calls of the source. The calls are words filed in the database; no cut-off is given here.",
  "data": [
    {"compound": "COc1ccc2cc(-c3cn(CCCCCC(=O)NO)nn3)ccc2c1", "values": [
      {"measurement": "selectivity ratio", "setting": "[1]", "value": "> 81.4"},
      {"measurement": "IC50", "setting": "Plasmodium falciparum [2]", "value": 0.035, "unit": "µg/mL"},
      {"measurement": "Ratio IC50", "setting": "Plasmodium falciparum [3]", "value": 5},
      {"measurement": "selectivity ratio", "setting": "[4]", "value": "> 91.9"},
      {"measurement": "IC50", "setting": "Plasmodium falciparum [5]; [12]", "value": 0.031, "unit": "µg/mL"},
      {"measurement": "IC50", "setting": "Vero; [13]", "value": 2.85, "unit": "µg/mL"},
      {"measurement": "IC90", "setting": "Leishmania donovani [6]; Leishmania donovani, 72 h", "value": "> 40", "unit": "µg/mL"},
      {"measurement": "IC50", "setting": "Leishmania donovani [6]; [14]", "value": 18, "unit": "µg/mL"},
      {"measurement": "Ratio IC50", "setting": "Plasmodium falciparum [7]", "value": 5}
    ]},
    {"compound": "COc1cccc(-c2cn(CCCCCC(=O)NO)nn2)c1", "values": [
      {"measurement": "IC90", "setting": "Leishmania donovani [8]", "value": "inactive"},
      {"measurement": "IC50", "setting": "Plasmodium falciparum [5]; vero", "value": "Not Active"},
      {"measurement": "IC50", "setting": "Vero; vero", "value": "Non-toxic"},
      {"measurement": "IC50", "setting": "Plasmodium falciparum [9]", "value": "Not Active"},
      {"measurement": "IC50", "setting": "Leishmania donovani [6]", "value": "Not Active"}
    ]},
    {"compound": "COc1ccc2cc(-c3cn(CCCCCCC(=O)NO)nn3)ccc2c1", "values": [
      {"measurement": "selectivity ratio", "setting": "[1]", "value": 55.8},
      {"measurement": "IC50", "setting": "Plasmodium falciparum [2]", "value": 0.0475, "unit": "µg/mL"},
      {"measurement": "Ratio IC50", "setting": "Plasmodium falciparum [3]", "value": 5},
      {"measurement": "selectivity ratio", "setting": "[4]", "value": 50},
      {"measurement": "IC50", "setting": "Plasmodium falciparum [5]; [12]", "value": 0.053, "unit": "µg/mL"},
      {"measurement": "IC50", "setting": "Vero; [13]", "value": 2.65, "unit": "µg/mL"},
      {"measurement": "IC90", "setting": "Leishmania donovani [6]; Leishmania donovani, 72 h", "value": "> 40", "unit": "µg/mL"},
      {"measurement": "IC50", "setting": "Leishmania donovani [6]; [14]", "value": 18.5, "unit": "µg/mL"},
      {"measurement": "Ratio IC50", "setting": "Plasmodium falciparum [7]", "value": 5}
    ]},
    {"compound": "O=C(CCCCCn1cc(-c2ccc3ccccc3n2)nn1)NO", "values": [
      {"measurement": "selectivity ratio", "setting": "[1]", "value": 72.7},
      {"measurement": "IC50", "setting": "Plasmodium falciparum [2]", "value": 0.033, "unit": "µg/mL"},
      {"measurement": "Ratio IC50", "setting": "Plasmodium falciparum [3]", "value": 5},
      {"measurement": "selectivity ratio", "setting": "[4]", "value": 70.6},
      {"measurement": "IC50", "setting": "Plasmodium falciparum [5]; [12]", "value": 0.034, "unit": "µg/mL"},
      {"measurement": "Ratio", "setting": "Leishmania donovani [10]", "value": 2},
      {"measurement": "IC50 ratio", "setting": "Leishmania donovani [11]", "value": 2},
      {"measurement": "IC50", "setting": "Vero; [13]", "value": 2.4, "unit": "µg/mL"},
      {"measurement": "IC90", "setting": "Leishmania donovani [6]; Leishmania donovani, 72 h", "value": 39, "unit": "µg/mL"},
      {"measurement": "IC50", "setting": "Leishmania donovani [6]; [14]", "value": 9.5, "unit": "µg/mL"},
      {"measurement": "Ratio IC50", "setting": "Plasmodium falciparum [7]", "value": 5}
    ]},
    {"compound": "O=C(CCCCCn1cc(-c2ccc3cccnc3c2)nn1)NO", "values": [
      {"measurement": "selectivity ratio", "setting": "[1]", "value": "> 90.7"},
      {"measurement": "IC50", "setting": "Plasmodium falciparum [2]", "value": 0.0525, "unit": "µg/mL"},
      {"measurement": "Ratio IC50", "setting": "Plasmodium falciparum [3]", "value": 5},
      {"measurement": "selectivity ratio", "setting": "[4]", "value": "> 144"},
      {"measurement": "IC50", "setting": "Plasmodium falciparum [5]; [12]", "value": 0.033, "unit": "µg/mL"},
      {"measurement": "IC50", "setting": "Vero; vero", "value": "Non-toxic"},
      {"measurement": "IC90", "setting": "Leishmania donovani [6]; Leishmania donovani, 72 h", "value": "> 40", "unit": "µg/mL"},
      {"measurement": "IC50", "setting": "Leishmania donovani [6]; [14]", "value": 18.5, "unit": "µg/mL"},
      {"measurement": "Ratio IC50", "setting": "Plasmodium falciparum [7]", "value": 5}
    ]}
  ]
}
